Data reported in patent US20230116972A1, “CD38 MODULATORS AND METHODS OF USE THEREOF” (Cytokinetics, Inc., priority 2021, published 2023).
Read-outs that look alike come from different tables or passages of the source.

Columns and labels:
Type in all cases: in vitro ADME
CYP2B6 = biological target: T1, CYP2B6 (Homo sapiens, UniProt P20813); experiment: direct inhibition of CYP450 in human liver microsomes; conditions: for activity at 3 µM / activity at 10 µM / activity at 50 µM: % of non-inhibited control, read-out: CYP2B6 T0 % activity; for IC50: estimated from 3, 10, 50 uM, read-out: CYP2B6 T0 estimated IC50
T1 construct: from tissue; host or cells: human liver microsomes (pooled in the time-dependent assay)
T1 sequence (P20813 1-491): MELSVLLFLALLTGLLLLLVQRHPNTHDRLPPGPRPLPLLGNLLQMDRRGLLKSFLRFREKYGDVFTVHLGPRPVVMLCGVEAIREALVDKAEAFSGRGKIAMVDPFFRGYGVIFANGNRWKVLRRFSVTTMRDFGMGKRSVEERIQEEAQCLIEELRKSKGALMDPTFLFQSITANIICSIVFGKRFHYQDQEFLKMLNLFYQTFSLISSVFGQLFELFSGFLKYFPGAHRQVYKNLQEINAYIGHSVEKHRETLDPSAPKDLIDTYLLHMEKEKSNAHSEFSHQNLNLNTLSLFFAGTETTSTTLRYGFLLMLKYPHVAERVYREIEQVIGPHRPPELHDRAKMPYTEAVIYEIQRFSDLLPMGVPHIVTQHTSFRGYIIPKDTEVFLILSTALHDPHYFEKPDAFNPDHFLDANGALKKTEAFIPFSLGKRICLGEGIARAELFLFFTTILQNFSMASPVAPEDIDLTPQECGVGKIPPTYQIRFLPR
Description: (§1) Direct inhibition: […] A Perspective of the Pharmaceutical Research and Manufacturers of America”, Drug Metabolism and Disposition, 37 (7): 1355, 2009). For 3A4, the % activity was measured using both midazolam and testosterone as probes. Each compound at 3, 10, and 50 μM was incubated with HLM, NADPH and CYP isoenzyme specific probe substrates at 37° C. Inhibition of the probe substrate metabolism was quantified using LC/MS/MS. […] Known chemical inhibitors specific for the individual CYP isoenzymes were evaluated in parallel as positive controls and these compounds produced CYP inhibition consistent with published results (Walsky & Obach RS. “Validated assays for human cytochrome P450 activities”. Drug Metab Dispos. 32(6):647-60, 2004). Note that, in Tables 6 and 7, the “Compound No” corresponds to the compound numbers in Table 1.

CYP1A2 = biological target: T2, CYP1A2 (Homo sapiens, UniProt P05177); experiment: as above
T2 construct: from tissue; host or cells: human liver microsomes (pooled in the time-dependent assay)
T2 sequence (P05177 1-516): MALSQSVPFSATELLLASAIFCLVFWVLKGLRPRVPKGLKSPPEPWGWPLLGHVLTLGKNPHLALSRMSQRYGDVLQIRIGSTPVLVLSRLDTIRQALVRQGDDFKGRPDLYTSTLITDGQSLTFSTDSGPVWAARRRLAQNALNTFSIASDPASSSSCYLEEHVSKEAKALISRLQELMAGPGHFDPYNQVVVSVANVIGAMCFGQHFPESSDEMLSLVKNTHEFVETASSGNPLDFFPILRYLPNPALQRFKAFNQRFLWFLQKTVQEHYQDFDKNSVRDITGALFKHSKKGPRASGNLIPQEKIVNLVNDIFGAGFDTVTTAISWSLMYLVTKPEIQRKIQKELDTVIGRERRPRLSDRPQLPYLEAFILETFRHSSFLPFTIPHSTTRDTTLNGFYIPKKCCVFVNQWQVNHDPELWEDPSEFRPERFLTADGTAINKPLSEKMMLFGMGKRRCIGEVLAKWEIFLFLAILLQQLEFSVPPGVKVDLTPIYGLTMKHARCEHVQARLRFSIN
Description: as §1

CYP2D6 = biological target: T3, CYP2D6 (Homo sapiens, UniProt P10635); experiment: as above; conditions: for activity at 3 µM / activity at 10 µM / activity at 50 µM: % of non-inhibited control, read-out: CYP2D6 T0 % activity; for IC50: estimated from 3, 10, 50 uM, read-out: CYP2D6 T0 estimated IC50
T3 construct: from tissue; host or cells: human liver microsomes (pooled in the time-dependent assay)
Description: as §1

CYP2C9 = biological target: T4, CYP2C9 (Homo sapiens, UniProt P11712); experiment: as above; conditions: for activity at 3 µM / activity at 10 µM / activity at 50 µM: % of non-inhibited control, read-out: CYP2C9 T0 % activity; for IC50: estimated from 3, 10, 50 uM, read-out: CYP2C9 T0 estimated IC50
T4 construct: from tissue; host or cells: human liver microsomes (pooled in the time-dependent assay)
Description: as §1

CYP2C19 = biological target: T5, CYP2C19 (Homo sapiens, UniProt P33261); experiment: as above; conditions: for activity at 3 µM / activity at 10 µM / activity at 50 µM: % of non-inhibited control, read-out: CYP2C19 T0 % activity; for IC50: estimated from 3, 10, 50 uM, read-out: CYP2C19 T0 estimated IC50
T5 construct: from tissue; host or cells: human liver microsomes (pooled in the time-dependent assay)
Description: as §1

CYP3A4 = biological target: T6, CYP3A4 (Homo sapiens, UniProt P08684); experiment: direct inhibition of CYP450 in human liver microsomes (midazolam and testosterone probes)
T6 construct: from tissue; host or cells: human liver microsomes (pooled in the time-dependent assay)
Description: as §1

[1] = midazolam probe, read-out: CYP3A4-M T0 % activity
[2] = testosterone probe, read-out: CYP3A4-T T0 % activity
[3] = midazolam probe, read-out: CYP3A4-M T0 estimated IC50
[4] = testosterone probe, read-out: CYP3A4-T T0 estimated IC50

T3 sequence (P10635 whole entry): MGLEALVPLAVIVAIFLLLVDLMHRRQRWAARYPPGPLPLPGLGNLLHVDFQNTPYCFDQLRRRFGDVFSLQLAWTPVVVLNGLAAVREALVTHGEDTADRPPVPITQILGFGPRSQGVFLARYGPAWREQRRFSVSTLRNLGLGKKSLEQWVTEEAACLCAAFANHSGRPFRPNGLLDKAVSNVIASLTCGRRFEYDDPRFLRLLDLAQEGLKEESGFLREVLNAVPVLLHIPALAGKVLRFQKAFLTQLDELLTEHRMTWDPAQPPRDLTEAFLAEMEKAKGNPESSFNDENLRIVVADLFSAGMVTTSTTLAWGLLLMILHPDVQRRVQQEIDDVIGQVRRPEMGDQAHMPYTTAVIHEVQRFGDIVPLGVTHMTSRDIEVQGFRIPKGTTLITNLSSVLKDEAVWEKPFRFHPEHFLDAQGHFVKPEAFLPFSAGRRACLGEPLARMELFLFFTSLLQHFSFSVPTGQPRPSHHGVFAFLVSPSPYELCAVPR
T4 sequence (P11712 whole entry): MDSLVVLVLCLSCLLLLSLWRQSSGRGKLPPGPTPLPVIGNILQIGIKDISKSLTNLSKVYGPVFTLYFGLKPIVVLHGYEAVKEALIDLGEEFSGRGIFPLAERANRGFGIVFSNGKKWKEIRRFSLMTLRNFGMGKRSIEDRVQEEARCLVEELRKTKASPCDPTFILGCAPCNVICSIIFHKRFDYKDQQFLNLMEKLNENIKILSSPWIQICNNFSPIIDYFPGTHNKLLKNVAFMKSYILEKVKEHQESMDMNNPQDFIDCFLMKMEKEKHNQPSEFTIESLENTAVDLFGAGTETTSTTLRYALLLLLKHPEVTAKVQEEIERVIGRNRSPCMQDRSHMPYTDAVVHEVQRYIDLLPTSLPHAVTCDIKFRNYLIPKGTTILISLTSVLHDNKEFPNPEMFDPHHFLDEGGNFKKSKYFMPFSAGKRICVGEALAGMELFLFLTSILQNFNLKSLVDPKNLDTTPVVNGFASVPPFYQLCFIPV
T6 sequence (P08684 whole entry): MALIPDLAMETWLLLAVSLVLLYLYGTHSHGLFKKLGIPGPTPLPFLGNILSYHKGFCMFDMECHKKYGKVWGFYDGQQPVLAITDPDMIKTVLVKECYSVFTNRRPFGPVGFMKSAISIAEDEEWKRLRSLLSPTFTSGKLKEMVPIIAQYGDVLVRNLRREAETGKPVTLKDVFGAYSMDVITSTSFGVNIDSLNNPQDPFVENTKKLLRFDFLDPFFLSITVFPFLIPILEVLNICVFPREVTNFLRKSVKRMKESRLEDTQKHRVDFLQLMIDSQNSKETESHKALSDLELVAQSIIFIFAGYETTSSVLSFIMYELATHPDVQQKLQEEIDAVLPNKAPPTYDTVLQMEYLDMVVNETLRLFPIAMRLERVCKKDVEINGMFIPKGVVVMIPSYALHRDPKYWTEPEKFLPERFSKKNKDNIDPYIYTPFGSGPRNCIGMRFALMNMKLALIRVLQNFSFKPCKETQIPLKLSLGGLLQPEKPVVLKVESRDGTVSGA
T5 sequence (P33261 whole entry): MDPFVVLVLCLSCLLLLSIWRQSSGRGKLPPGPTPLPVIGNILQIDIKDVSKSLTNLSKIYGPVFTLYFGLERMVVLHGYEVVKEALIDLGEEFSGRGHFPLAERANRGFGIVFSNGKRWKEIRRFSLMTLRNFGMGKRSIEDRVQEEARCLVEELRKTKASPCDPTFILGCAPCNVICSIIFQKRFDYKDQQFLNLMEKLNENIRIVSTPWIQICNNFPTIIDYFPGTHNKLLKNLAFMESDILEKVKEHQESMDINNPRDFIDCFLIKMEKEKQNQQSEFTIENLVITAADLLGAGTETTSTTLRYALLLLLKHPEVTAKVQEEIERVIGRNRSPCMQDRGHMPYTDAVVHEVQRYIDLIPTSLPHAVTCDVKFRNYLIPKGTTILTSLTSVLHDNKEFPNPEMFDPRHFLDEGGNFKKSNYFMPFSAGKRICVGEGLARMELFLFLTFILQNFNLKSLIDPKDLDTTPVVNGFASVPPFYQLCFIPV

| SMILES | activity at 3 µM (CYP2B6) | activity at 10 µM (CYP2B6) | activity at 50 µM (CYP2B6) | IC50 (CYP2B6) | activity at 3 µM (CYP2D6) | activity at 10 µM (CYP2D6) | activity at 50 µM (CYP2D6) | IC50 (CYP2D6) | activity at 3 µM (CYP2C9) | activity at 10 µM (CYP2C9) | activity at 50 µM (CYP2C9) | IC50 (CYP2C9) | activity at 3 µM (CYP2C19) | activity at 10 µM (CYP2C19) | activity at 50 µM (CYP2C19) | IC50 (CYP2C19) | activity at 3 µM (CYP3A4; [1]) | activity at 3 µM (CYP3A4; [2]) | activity at 10 µM (CYP3A4; [1]) | activity at 10 µM (CYP3A4; [2]) | other results |
| --- | --- | --- | --- | --- | --- | --- | --- | --- | --- | --- | --- | --- | --- | --- | --- | --- | --- | --- | --- | --- | --- |
| [2H]c1nc([2H])n(-c2nc(C)cc(C(=O)N[C@H]3CC[C@H](OCCOC)CC3)n2)c1[2H] [Comparator Compound A, reference compound] | 103% | 98% | 57% | > 50 µM | 95% | 82% | 42% | < 50 µM | 88% | 64% | 24% | < 50 µM | 77% | 49% | 17% | ~10 µM | 98% | 100% | 99% | 97% | activity at 3 µM (CYP1A2; 3 uM, human liver microsomes, % of non-inhibited control, read-out: CYP1A2 T0 % activity): 98%; activity at 10 µM (CYP1A2; 10 uM, human liver microsomes, % of non-inhibited control, read-out: CYP1A2 T0 % activity): 98%; activity at 50 µM (CYP1A2; 50 uM, human liver microsomes, % of non-inhibited control, read-out: CYP1A2 T0 % activity): 92%; IC50 (CYP1A2; human liver microsomes, estimated from 3, 10, 50 uM, read-out: CYP1A2 T0 estimated IC50): > 50 µM; activity at 50 µM (CYP3A4; [1]): 91%; activity at 50 µM (CYP3A4; [2]): 103%; IC50 (CYP3A4; [3]): > 50 µM; IC50 (CYP3A4; [4]): > 50 µM |
| CO[C@H]1CC[C@H](NC(=O)c2nccc(-n3ccnc3)n2)CC1 [Compound 145, 4-(1H-Imidazol-1-yl)-N-((1r,4r)-4-methoxycyclohexyl)pyrimidine-2-carboxamide] | 101% | 98% | 99% | > 50 µM | 93% | 73% | 47% | < 50 µM | 97% | 99% | 96% | > 50 µM | 92% | 93% | 89% | > 50 µM | 99% | 96% | 89% | 98% | IC50 (CYP1A2): > 50 µM; activity at 3 µM (CYP1A2; human, microsomes): 94%; activity at 10 µM (CYP1A2; human, microsomes): 92%; activity at 50 µM (CYP1A2; human, microsomes): 79%; activity at 50 µM (CYP3A4; [1]): 75%; activity at 50 µM (CYP3A4; [2]): 95%; IC50 (CYP3A4; [3]): > 50 µM; IC50 (CYP3A4; [4]): > 50 µM |
